Columns and labels:
[1] = test system: blood vessels in endometriotic lesions; assay: Immunofluorescence (vWF/α-SMA) of new and mature blood vessels in the implants; format: in vivo, mice; settings: low and high dose groups vs control
Experimental: The anti-angiogenic effects of the dopamine agonists were assessed by immunofluorescence, the antibodies used in confocal microscopy raised against Von Willebrand factor (vWF monoclonal IgG1, DAKO Corp., Denmark) present in endothelial cells and vascular smooth muscle cells (monoclonal IgG2 α-SMA-FITC conjugated de Sigma, St Louis, USA). Blood vessel which are not of new formation, are rounded by a smooth muscle layer which confers maturity to them. Identification of endothelial cells was made employing vWF, whereas mature vessels were identified by α-SMA positive staining. Thus, vWF+/αSMA− blood vessels were considered new or immature, while vWF+/αSMA+ vessels were classified as old or mature blood vessels.
The angiogenic status of the lesions was initially analyzed using immunofluorescence employing antibodies to identify new (vWF+/αSMA−) and old vessels (vWF+/αSMA+) and confocal microscopy (Leica Confocal Software). Immunofluorescence employing antibodies raised against the Von Willebrand factor (vWF) present in endothelial cells and vascular smooth muscle cells (α-SMA) can be used to test the antiangiogenic action Cb2. Blood vessel which are not of new formation, are rounded by a smooth muscle layer which confers maturity to them. Identification of endothelial cells was made employing vWF, whereas mature vessels were identified by α-SMA positive staining. […]

[2] = mouse, in vivo
Text: (§4) Three weeks after implantation the animals were split into three groups. […] Two weeks after treatment the animals were sacrificed and the endometriotic lesions sampled and analysed as set out below.

endometriotic lesions [3] = assay: Ki-67 immunocytochemistry, proliferative activity of the implants; format: in vivo, mice; settings: both low and high dose groups vs control; P<0.001
Experimental: (§1) Morphometric study was performed to measure the implants area and cellular density. Immunocytochemistry with Ki-67 (monoclonal IgG1 DAKO Corp., Denmark) antibody was performed in order to evaluate the proliferative activity of the implants. The histopathological and subcellular ultrastructural changes were detected using an optical microscope (OM), transmission electronic microscope (TEM) and histochemical staining. Optical microscopy (OM), transmission electron microscopy (TEM) and morphometry were performed to ascertain the presence of endometrial glands and stroma and study subcellular ultrastructural changes, area of the implants and cellular density.
An immunocyto chemistry study using the Ki-67 antibody (i.e. analysing the degree of cellular proliferation employing antibodies against Ki-67) was used to evaluate the proliferative activity of the implants using methods known in the art.

Ang-1 = assay: TaqMan Real-time PCR gene expression in implants: Ang-1; format: in vivo, mice; settings: for Ang-1 relative expression: vehicle 1.1 ± 0.2, Mean ± SD
Text: (§2) TaqMan Real-time PCR and 2^−ΔΔCt methods were used to analyze the gene expression profiles of three different markers that promote angiogenesis (VEGF, VEGFR-2, Notch-4); Angiopoietin-1 (Ang-1), an antiangiogenesis marker which promotes the enlargement of existing vessels and resistance to leakage; and Wnt-1.
(§3) TaqMan Real-time PCR and 2^−ΔΔCt methods were used to analyze the gene expression profiles of three different markers that promote angiogenesis (VEGF, VEGFR-2, Notch-4); Angiopoietin-1 (Ang-1), an antiangiogenesis marker which promotes the enlargement of existing vessels and resistance to leakage; and Wnt-1. The housekeeping 18S rRNA was used to normalize the target gene Ct values. The Ct value in each group was expressed relative to the control group Ct values (calibrator), to calculate the relative expression by the 2^−ΔΔCt method. cDNA obtained from sarcoma 180 tumor cells (S-180) and human umbilical vein endothelial cells (HUVEC) was used as negative and positive control, respectively, for the VEGF and VEGFR-2 gene expression. Spleen was used as positive control for Ang-1 and Wnt-1, and lung was employed as a Notch-4 positive control.

VEGF = assay: TaqMan Real-time PCR gene expression in implants: VEGF; format: in vivo, mice; settings: for VEGF relative expression: vehicle 1.2 ± 0.3, Mean ± SD
Text: as §2, §3

Wnt-1 = assay: TaqMan Real-time PCR gene expression in implants: Wnt-1; format: in vivo, mice; settings: for Wnt-1 relative expression: vehicle 1.0 ± 0.1, Mean ± SD
Text: as §2, §3

endometriotic lesions [4] = assay: Nude mouse endometriosis model: active lesions, histology (OM, TEM) and morphometry; format: in vivo, mice; settings: for percentage of active lesions: two weeks, control 89.6±5.7%, p=0.0169, mean ± SEM
Experimental: An experimental animal endometriosis model was developed in nude mice by inserting human endometrium fragments. Female mice (Hsd: Athimic Nude-nu, Harlan Ibérica S. L, Barcelona, Spain) were individually housed in autoclaved cages and bedding, in laminar flow filtered hoods. The animal room was maintained at 26 C with a 12-h light, 12-h dark cycle, and mice were fed ad libitum with autoclaved laboratory rodent chow and acidified water. All handling was performed in laminar flow filtered hoods. A mixture of ketamine/medetomidine (75 μg/g ketamine and 1 μg/g medetomidine) (Ketolar®, Parke-Davis, España; Domtor®, Pfizer, Spain) i.p injected, was used to anesthetize mice before invasive procedures and atipamezole (Antisedan®, SmithKline Beecham, Spain) 1 μg/g i.p injected, to reverse the anesthesia effects, was used after invasive procedures, using sterile instruments.
At the age of 5 weeks, sterile 60-d release capsules containing 18 mg 17β-estradiol (Innovative Research of America, Sarasota, Fla.) were placed sc in the neck of each animal. According to the manufacturer's information, capsules provide continuous release of hormone at serum concentrations of 150-250 pmol/liter, in the range of physiological levels in mice during the estrous cycle. This stable physiological level of estrogen promotes the growth of transplanted human endometrium and avoids intermouse differences related to various stages of the estrous cycle.
Four days after insertion of the estrogen pellet, an entrance was made to the peritoneal cavity in the midline in the lower abdomen to insert fresh human endometrium from ovum pick-up donors. These fragments were stuck by glue (Vetabond®, 3M Animal Care products, USA) to the peritoneum. This protocol allowed to mimic the pathologic situation of retrograde menstruation that occur in women with endometriosis.
as §1

[5] = Toxicity in the nude mouse endometriosis study; settings: 0.05 and 0.1 mg/kg/day oral, two weeks
Text: as §4

VEGFR-2 (KDR) = assay: TaqMan Real-time PCR gene expression in implants: VEGFR-2 (KDR); format: in vivo, mice; settings: for VEGFR-2 (KDR) relative expression: vehicle 1.0 ± 0.1, Mean ± SD
Text: as §2, §3

Notch-4 = assay: TaqMan Real-time PCR gene expression in implants: Notch-4; format: in vivo, mice; settings: for Notch-4 relative expression: vehicle 1.0 ± 0.1, Mean ± SD
Text: as §2, §3

[6] = low and high dose groups, p <0.05

C=CCN1C[C@H](C(=O)N(CCCN(C)C)C(=O)NCC)C[C@@H]2c3cccc4[nH]cc(c34)C[C@H]21 [cabergoline]
new blood vessel formation (angiogenesis) [1]: significantly reduced new blood vessel formation
body weight of the mice in the different treatment groups [2]: not significantly different
proliferation (Proliferation Index, Ki-67 positive cells) (endometriotic lesions [3]): decrease in proliferation
Ang-1 relative expression (Ang-1; HIGH DOSE (0.1 mg/kg/day)): 3.7 ± 0.6
Ang-1 relative expression (Ang-1; LOW DOSE (0.05 mg/kg/day)): 3.2 ± 0.6
Expression of Ang-1 in treated groups vs vehicle (Ang-1; [6]): Upregulated
VEGF relative expression (VEGF; HIGH DOSE (0.1 mg/kg/day)): 0.4 ± 0.1
VEGF relative expression (VEGF; LOW DOSE (0.05 mg/kg/day)): 0.5 ± 0.2
VEGF expression in endometrial implants (VEGF; increasing doses (control, 0.05, 0.1 mg/kg/day), FIG. 6a): trend towards decreased VEGF expression
Expression of VEGF in treated groups vs vehicle (VEGF; [6]): Downregulated
Wnt-1 relative expression (Wnt-1; HIGH DOSE (0.1 mg/kg/day)): 3.3 ± 0.6
Wnt-1 relative expression (Wnt-1; LOW DOSE (0.05 mg/kg/day)): 3.4 ± 0.2
Expression of Wnt-1 in treated groups vs vehicle (Wnt-1; low and high dose groups, p =0.07): Upregulated
ratio glands/stroma (morphometry) (endometriotic lesions [4]; both low (0.05 mg/kg/day) and high (0.1 mg/kg/day) doses vs controls, p<0.05): more stroma and less glands than the controls
cellular density (morphometry) (endometriotic lesions [4]; control, low and high dose groups): no statistical difference among groups
histology of treated lesions (OM and TEM) (endometriotic lesions [4]; high and low dose): a lax stroma, with lost cellularity and organization
percentage of active lesions (endometriotic lesions [4]; high dose 0.1 mg/kg/day oral): 60.4±8.4%
percentage of active lesions (endometriotic lesions [4]; low dose 0.05 mg/kg/day oral): 58.6±9.7%
mortality following administration [5]: No mice in the study died
VEGFR-2 (KDR) relative expression (VEGFR-2 (KDR); HIGH DOSE (0.1 mg/kg/day)): 0.3 ± 0.1
VEGFR-2 (KDR) relative expression (VEGFR-2 (KDR); LOW DOSE (0.05 mg/kg/day)): 0.4 ± 0.1
Expression of VEGFR-2 (KDR) in treated groups vs vehicle (VEGFR-2 (KDR); [6]): Downregulated
Notch-4 relative expression (Notch-4; HIGH DOSE (0.1 mg/kg/day)): 0.4 ± 0.1
Notch-4 relative expression (Notch-4; LOW DOSE (0.05 mg/kg/day)): 0.5 ± 0.1
Expression of Notch-4 in treated groups vs vehicle (Notch-4; [6]): Downregulated

Source: patent US9023862B2, “Medicament for the treatment of endometriosis” (Ferring International Center S.A., priority 2007, dated 2015)
